Measurements as given in PMC11813358 (Journal of Microbiology and Biotechnology, 2024).
Numbering of substitutions follows the chain as printed. “And” between values parts separate entries of the source, which are not always exact repeats. Equal values may be shown once. “Also recorded” adds a separate entry of the source.

Columns and labels:
Format in all cases: cell-based
[1] = target: T1, L260A mutant 5-HT3A receptor (Homo sapiens, UniProt P46098, L282A); assay: Two-electrode voltage clamp of I5-HT in oocytes expressing L260A mutant 5-HT3A receptor; conditions: 100 μM 5-HT
T1 construct: expressed in transfected cells; host or cells: Xenopus laevis oocytes injected with cRNA
T1 sequence (P46098 24-478 L282A): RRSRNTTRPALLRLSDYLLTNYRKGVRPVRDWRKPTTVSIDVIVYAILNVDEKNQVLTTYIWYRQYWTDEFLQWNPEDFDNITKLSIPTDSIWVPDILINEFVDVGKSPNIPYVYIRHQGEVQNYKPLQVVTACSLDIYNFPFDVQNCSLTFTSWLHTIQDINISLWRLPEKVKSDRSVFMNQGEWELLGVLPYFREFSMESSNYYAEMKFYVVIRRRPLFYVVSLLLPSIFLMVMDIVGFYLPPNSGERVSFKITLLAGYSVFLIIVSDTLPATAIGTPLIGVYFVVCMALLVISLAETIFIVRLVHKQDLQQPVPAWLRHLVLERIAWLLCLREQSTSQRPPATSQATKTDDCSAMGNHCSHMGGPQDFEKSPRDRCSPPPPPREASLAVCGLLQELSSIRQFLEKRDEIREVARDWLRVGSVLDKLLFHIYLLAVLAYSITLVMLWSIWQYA
Experimental: (§1) The experimental procedure follows the approach outlined in the previous study, but is summarized briefly as follows. The plasmid containing the cDNAs for the 5-HT3A receptor was digested with Xho I restriction enzymes to linearize the cDNAs, which were then transcribed into cRNA using the Ambion mMESSAGE mMACHINE transcription kit with T7 RNA polymerase (Thermo Fisher Scientific Inc., USA). After transcription, the cRNA was dissolved in nuclease-free water, and its size and concentration were assessed via electrophoresis and spectrophotometry (DeNovix Inc., USA). The cRNA was aliquoted to a concentration of 1 μg/μl for storage at -80°C. Specific mutations were introduced into the 5-HT3A receptor using the QuickChange site-directed mutagenesis kit (Agilent Technologies Inc., USA) and PCR. The correctness of the mutations was verified by sequencing the final mutated DNA (CosmoGenetech Co., Republic of Korea).
(§2) The study utilized female Xenopus laevis frogs that were kept according to institutional protocols (CNU IACUC-YB-2016-07, July 2016), requiring a stable temperature of around 20°C and a 12-h light-dark cycle. Frog care adhered to standards from the Korean Xenopus Resource Center for Research (KXRCR000001). Anesthesia was induced by placing the frogs on ice, after which a small abdominal incision was made to extract oocytes, which were isolated using OR2 buffer (containing 82.5 mM NaCl, 2 mM KCl, 1 mM MgCl2, and 5 mM HEPES, pH 7.5) with collagenase. After rinsing with ND96 buffer (which includes 96 mM NaCl, 2 mM KCl, 1 mM MgCl2, 1.8 mM CaCl2, and 5 mM HEPES, pH 7.5), stage V-VI oocytes were selected and incubated at 18°C with ND96 incubation buffer containing sodium pyruvate and gentamicin for 2 to 3 days. […]
(§3) Two to three days post-RNA injection, the expression of the 5-HT3A protein in the oocytes was verified using a two-electrode oocyte clamp (OC-725C, Warner Instruments, LLC, USA). […] Current data were collected with a Digidata 1550 series device and analyzed using pCLAMP 10 software (Molecular Devices LLC, USA). […]

[2] = target: T2, Human 5-hydroxytryptamine receptor 3A subtype (wild-type 5-HT3A receptor) (Homo sapiens, UniProt P46098); assay: Two-electrode voltage clamp of 5-HT-induced inward current (I5-HT) in Xenopus oocytes expressing wild-type 5-HT3A receptor; conditions: for Imax of 5-HT concentration-response: normalized to maximum 5-HT current
T2 construct: host or cells: Xenopus laevis oocytes injected with cRNA
T2 sequence (P46098 24-478): T1 sequence (P46098 24-478 L282A) with A259L
Experimental: as §1
(§4) The study utilized female Xenopus laevis frogs that were kept according to institutional protocols (CNU IACUC-YB-2016-07, July 2016), requiring a stable temperature of around 20°C and a 12-h light-dark cycle. Frog care adhered to standards from the Korean Xenopus Resource Center for Research (KXRCR000001). Anesthesia was induced by placing the frogs on ice, after which a small abdominal incision was made to extract oocytes, which were isolated using OR2 buffer (containing 82.5 mM NaCl, 2 mM KCl, 1 mM MgCl2, and 5 mM HEPES, pH 7.5) with collagenase. After rinsing with ND96 buffer (which includes 96 mM NaCl, 2 mM KCl, 1 mM MgCl2, 1.8 mM CaCl2, and 5 mM HEPES, pH 7.5), stage V-VI oocytes were selected and incubated at 18°C with ND96 incubation buffer containing sodium pyruvate and gentamicin for 2 to 3 days. Finally, 40 ng of 5HT3A cRNA was injected into each oocyte using a Nanoject automatic oocyte injector.
(§5) Two to three days post-RNA injection, the expression of the 5-HT3A protein in the oocytes was verified using a two-electrode oocyte clamp (OC-725C, Warner Instruments, LLC, USA). An agar bridge facilitated electrical connections, while ND96 buffer flowed continuously into the net chamber at 2 ml/min. Two glass microelectrodes filled with 3 M KCl (0.2 MΩ resistance) accessed the oocytes. To analyze the current-voltage relationship, voltages from −80 to +50 mV were applied, maintaining a holding potential of −80 mV. Current data were collected with a Digidata 1550 series device and analyzed using pCLAMP 10 software (Molecular Devices LLC, USA).
(§6) The Hill equation was used for graph fitting in OriginPro 7.0, as detailed below:
(§7) y = Vmin + (Vmax − Vmin) * [x]^n/([IC50]^n + [x]^n)
In this formula, Vmax and Vmin represent the highest and lowest current values, respectively. […] The variable x signifies the concentration of these compounds, while n corresponds to the Hill coefficient.

[3] = target: T3, V264A mutant 5-HT3A receptor (Homo sapiens, UniProt P46098, V286A); assay: Two-electrode voltage clamp of I5-HT in oocytes expressing V264A mutant 5-HT3A receptor; conditions: 100 μM 5-HT
T3 construct: expressed in transfected cells; host or cells: Xenopus laevis oocytes injected with cRNA
T3 sequence (P46098 24-478 V286A): T1 sequence (P46098 24-478 L282A) with A259L, V263A
Experimental: as §1, §2, §3

[4] = target: T4, double mutant (L260A + V264A) 5-HT3A receptor (Homo sapiens, UniProt P46098, L282A/V286A); assay: Two-electrode voltage clamp of I5-HT in oocytes expressing double mutant (L260A/V264A) 5-HT3A receptor; conditions: for Inhibitory effect of MDL 72222 on double mutant: 0.5 μM MDL 72222
T4 construct: expressed in transfected cells; host or cells: Xenopus laevis oocytes injected with cRNA
T4 sequence (P46098 24-478 L282A/V286A): T1 sequence (P46098 24-478 L282A) with V263A
Experimental: as §1, §4, §5, §6, §7
In this formula, Vmax and Vmin represent the highest and lowest current values, respectively. […]

[5] = −80 mV, unit not printed in Table 3, taken
[6] = 5-HT + 3 μM nicergoline, −80 mV
[7] = 5-HT + 30 μM nicergoline, −80 mV
[8] = wild type, co-treatment with 100 μM 5-HT, −80 mV

CO[C@]12C[C@@H](COC(=O)c3cncc(Br)c3)CN(C)[C@@H]1Cc1cn(C)c3cccc2c13 [nicergoline]
nH [1]: 1.2 ± 0.3 | Maximum inhibition of I5-HT ([1]; −80 mV): 51% and 51.9 ± 2.9% | IC50 [1, 5]: 57.4 ± 5.6 µM | 5-HT current when 5-HT applied immediately following nicergoline, % of the initial (baseline) current ([2]; 30 μM nicergoline applied alone, then 100 μM 5-HT at 0 sec washout): 56.2 ± 10.9% | Imax of 5-HT concentration-response [2, 6]: 70.6 ± 2.9 | nH of 5-HT concentration-response [2, 6]: 1.3 ± 0.4 | Imax of 5-HT concentration-response [2, 7]: 45.8 ± 8.6 | nH of 5-HT concentration-response [2, 7]: 1.2 ± 0.3 | Mode of antagonism versus 5-HT ([2]; 5-HT concentration-response in presence of 3 and 30 μM nicergoline): non-competitive | IC50 ([2]; wild type, co-treatment with 100 μM 5-HT, holding potential −80 mV): 7.7 ± 0.9 µM | Hill coefficient (nH) of inhibition [2, 8]: 1.4 ± 0.2 | Maximum inhibition of I5-HT [2, 8]: 91.1 ± 3.4% | Maximum inhibition of I5-HT ([2]; wild type, co-treatment with 100 μM 5-HT, −80 mV, listed as Nicergoline): approximately 91% | nH [3]: 0.8 ± 0.2 | Maximum inhibition of I5-HT ([3]; −80 mV): 24% and 24.1 ± 0.8% | IC50 [3, 5]: 54.7 ± 5 µM | Inhibitory effect of nicergoline on double mutant ([4]; 100 μM nicergoline, double mutant (L260A/V264A)): absent; also recorded: abolished | Maximum inhibition of I5-HT ([4]; L260A + V264A double mutant, 100 μM 5-HT, −80 mV): 2.7 ± 1.3%

CN1[C@@H]2CC[C@H]1C[C@@H](OC(=O)c1cc(Cl)cc(Cl)c1)C2 [MDL 72222]
Inhibitory effect of MDL 72222 on double mutant ([4]; double mutant (L260A/V264A)): strongly inhibited | Inhibitory effect of MDL 72222 on double mutant ([4]; double mutant (L260A/V264A), listed as MDL72222): remained unaffected

NCCc1c[nH]c2ccc(O)cc12 [serotonin, 5-hydroxytryptamine]
Imax of 5-HT concentration-response ([2]; Control, 5-HT alone, −80 mV): 101.5 ± 4.6 | nH of 5-HT concentration-response ([2]; Control, 5-HT alone, −80 mV): 1.2 ± 0.1
